{"source": "patent US8278072B1", "about": "“Method for synthesis of sialylated products using reversible sialylation” (Health Research, Inc., priority 2007, dated 2012)", "key": {"ST3Gal-II": {"target": "T1, ST3Gal-II (Rattus norvegicus, UniProt Q11205)", "T1 construct": "purchased Calbiochem", "T1 sequence (Q11205 1-350)": "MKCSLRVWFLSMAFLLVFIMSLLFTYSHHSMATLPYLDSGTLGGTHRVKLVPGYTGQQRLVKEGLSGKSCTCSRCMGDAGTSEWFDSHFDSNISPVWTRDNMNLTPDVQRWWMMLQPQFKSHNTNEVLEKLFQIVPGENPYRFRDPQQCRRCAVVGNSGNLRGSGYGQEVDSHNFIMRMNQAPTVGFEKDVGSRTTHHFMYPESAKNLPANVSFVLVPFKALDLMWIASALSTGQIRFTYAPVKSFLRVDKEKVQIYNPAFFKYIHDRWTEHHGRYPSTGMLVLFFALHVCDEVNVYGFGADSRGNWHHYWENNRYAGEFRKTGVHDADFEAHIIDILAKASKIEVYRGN", "assay": "Serial transfer of sialic acid from donor via 5′-CMP to acceptors (scheme-II)", "type": "biochemical", "details": "0.15 mM donor; 2 mM 5′-CMP with core-2 donors"}, "PC3": {"tested_on": "PC3", "assay": "Reversible sialyltransferase activity in cell extract", "type": "biochemical, human", "details": "PC3 (prostate) cell extract, 1.0 mM 5′-CMP, 16 h, pH 6.0", "description": "(§1) Thus, [9-^3H[4]] was used as donor and D-Fucβ1,3GalNAcα-O-Bn as acceptor in the presence of 5′-CMP and solubilized cell extracts. Of the cells tested, human prostate cancer cell lines LNCaP and PC-3 contained significant reversible sialyltransferase activity."}, "T47D": {"tested_on": "T47D", "assay": "Reversible sialyltransferase activity in cell extract", "type": "biochemical, human", "details": "T47D (breast) cell extract, 1.0 mM 5′-CMP, 16 h, pH 6.0", "description": "as §1"}, "ZR75-1": {"tested_on": "ZR75-1", "assay": "Reversible sialyltransferase activity in cell extract", "type": "biochemical, human", "details": "ZR75-1 (breast) cell extract, 1.0 mM 5′-CMP, 16 h, pH 6.0", "description": "as §1"}, "MDA-MB-435": {"tested_on": "MDA-MB-435", "assay": "Reversible sialyltransferase activity in cell extract", "type": "biochemical, human", "details": "MDA-MB-435 (breast) cell extract, 1.0 mM 5′-CMP, 16 h, pH 6.0", "description": "as §1"}, "LS180": {"tested_on": "LS180", "assay": "Reversible sialyltransferase activity in cell extract", "type": "biochemical, human", "details": "LS180 (colon) cell extract, 1.0 mM 5′-CMP, 16 h, pH 6.0", "description": "as §1"}, "MDA-MB231": {"tested_on": "MDA-MB231", "assay": "Reversible sialyltransferase activity in cell extract", "type": "biochemical, human", "details": "MDA-MB231 (breast) cell extract, 1.0 mM 5′-CMP, 16 h, pH 6.0", "description": "as §1"}, "LNCaP": {"tested_on": "LNCaP", "assay": "Reversible sialyltransferase activity in cell extract", "type": "biochemical, human", "details": "LNCaP (prostate) cell extract, 1.0 mM 5′-CMP, 16 h, pH 6.0", "description": "as §1"}, "MCF-7": {"tested_on": "MCF-7", "assay": "Reversible sialyltransferase activity in cell extract", "type": "biochemical, human", "details": "MCF-7 (breast) cell extract, 1.0 mM 5′-CMP, 16 h, pH 6.0", "description": "as §1"}, "HL60": {"tested_on": "HL60", "assay": "Reversible sialyltransferase activity in cell extract", "type": "biochemical, human", "details": "HL60 (leukemia) cell extract, 1.0 mM 5′-CMP, 16 h, pH 6.0", "description": "as §1"}}}
{"substance": "[9-^3H]NeuAcα2,3Galβ1,3(6-O-SulfoGlcNAcβ1,6)GalNAcα-O—Al [[4]]", "values": [{"measurement": "amount of acceptor [5] required for comparable transfer", "setting": "ST3Gal-II", "result": "~6", "unit": "mM"}, {"measurement": "Transfer of [9-3H]NeuAc from [9-3H[4]] to [5]", "setting": "PC3", "result": 4.72, "unit": "CPM × 10^−3/mg protein"}, {"measurement": "Transfer of [9-3H]NeuAc from [9-3H[4]] to [5]", "setting": "T47D", "result": 0.52, "unit": "CPM × 10^−3/mg protein"}, {"measurement": "Transfer of [9-3H]NeuAc from [9-3H[4]] to [5]", "setting": "ZR75-1", "result": 1.32, "unit": "CPM × 10^−3/mg protein"}, {"measurement": "Transfer of [9-3H]NeuAc from [9-3H[4]] to [5]", "setting": "MDA-MB-435", "result": 0.69, "unit": "CPM × 10^−3/mg protein"}, {"measurement": "Transfer of [9-3H]NeuAc from [9-3H[4]] to [5]", "setting": "LS180", "result": 0.01, "unit": "CPM × 10^−3/mg protein"}, {"measurement": "Transfer of [9-3H]NeuAc from [9-3H[4]] to [5]", "setting": "MDA-MB231", "result": 0.09, "unit": "CPM × 10^−3/mg protein"}, {"measurement": "Transfer of [9-3H]NeuAc from [9-3H[4]] to [5]", "setting": "LNCaP", "result": 19.89, "unit": "CPM × 10^−3/mg protein"}, {"measurement": "Transfer of [9-3H]NeuAc from [9-3H[4]] to [5]", "setting": "MCF-7", "result": 0.57, "unit": "CPM × 10^−3/mg protein"}, {"measurement": "Transfer of [9-3H]NeuAc from [9-3H[4]] to [5]", "setting": "HL60", "result": 0.76, "unit": "CPM × 10^−3/mg protein"}]}
